How the values were obtained:
RORα = molecular target: T1, RORα (Homo sapiens, UniProt P35398); assay: RORα luciferase reporter assay; format: cell-based; settings: up to 10,000 nM, n = 3
T1 sequence (P35398 272-523 limits assumed): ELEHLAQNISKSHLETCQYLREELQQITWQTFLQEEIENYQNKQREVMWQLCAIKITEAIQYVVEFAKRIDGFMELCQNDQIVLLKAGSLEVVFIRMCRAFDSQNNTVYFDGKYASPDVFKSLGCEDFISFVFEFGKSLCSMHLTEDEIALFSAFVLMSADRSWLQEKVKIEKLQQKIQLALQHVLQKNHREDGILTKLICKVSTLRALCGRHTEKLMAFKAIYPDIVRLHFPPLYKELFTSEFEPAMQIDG
Procedure: We next assessed the selectivity of SHR168442 against another ROR family member, RORα, using nuclear reporter assay. […] ATRA (all trans-retinoic acid) was used as a positive control in the assay.
Cell-based luciferase reporter assays for RORα and RORγ (Indigo Biosciences) were performed according to the manufacturer’s protocol.

ADORA2A = molecular target: T2, ADORA2A (Homo sapiens, UniProt P29274); assay: SAFETYscan47 Calcium Flux; format: cell-based; settings: 3 µM
T2 construct: purchased DiscoverX (Eurofins) SAFETYscan47
Procedure: To further profile any off-target activity, we counter-screened SHR168442 in SAFETYscan47 panel, compiled by DiscoverX based on the recommendation by major pharmaceutical companies. SHR168442 was screened at 3 µM in duplicates.

T2 sequence (P29274 whole entry): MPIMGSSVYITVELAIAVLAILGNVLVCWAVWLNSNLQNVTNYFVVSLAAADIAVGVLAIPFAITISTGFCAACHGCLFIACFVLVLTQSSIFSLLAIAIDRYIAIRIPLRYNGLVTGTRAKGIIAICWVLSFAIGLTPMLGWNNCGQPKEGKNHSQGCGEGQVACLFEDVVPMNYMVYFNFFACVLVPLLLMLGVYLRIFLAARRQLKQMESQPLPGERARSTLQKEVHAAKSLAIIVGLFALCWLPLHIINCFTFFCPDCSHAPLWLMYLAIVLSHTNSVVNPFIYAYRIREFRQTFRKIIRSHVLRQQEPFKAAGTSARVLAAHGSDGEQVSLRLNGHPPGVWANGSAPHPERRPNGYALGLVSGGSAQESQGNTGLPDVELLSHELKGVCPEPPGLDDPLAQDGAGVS

## CCS(=O)(=O)c1ccc([C@H](CCO)c2nc3c(Cl)c(N4CCC(F)(F)CC4)c(Cl)cc3[nH]2)cc1 [SHR168442, (S)-3-(4,6-dichloro-5-(4,4-difluoropiperidin-1-yl)-1H-benzo[d]imidazol-2-yl)-3-(4-(ethylsulfonyl)phenyl)propan-1-ol]
RORα
  effect on RORα reporter activity: little effect
ADORA2A; Agonist
  % Response Average: 7.3%
  % Response Replicate 1: 0.0%
  % Response Replicate 2: 14.7%
ADORA2A; Antagonist
  % Response Average: 15.1%
  % Response Replicate 1: 5.4%
  % Response Replicate 2: 24.9%

Source: article PMC8080595, “Discovery of a novel RORγ antagonist with skin-restricted exposure for topical treatment of mild to moderate psoriasis” (Scientific Reports, 2021)
